# In patent US11771738B2 (Zoetis Services LLC, priority 2018, dated 2023):
# Where two headings read alike, the source gives them in different places.
# Key:
# Type in all cases: cell-based
# [1] = system: microfilariae of Dirofilaria immitis; test: Dirofilaria immitis, Microfilaria (DiMf) In Vitro Assay; details: Dirofilaria immitis, 72 h, read-out: DiMf MED, Minimum Effective Dose, D. immitis microfilariae motility, in vitro
# D. immitis L4 larvae = test: Dirofilaria immitis, L4 Stage (DiL4) In Vitro Assay; details: for minimal effective concentration: Dirofilaria immitis, 72 h, read-out: DiL4 MED, Minimum Effective Dose, D. immitis L4 larvae motility, in vitro; for DiMf/DiL4: larval stage selectivity, ratio of DiMf MED to DiL4 MED
# [2] = system: third stage larvae of Haemonchus contortus; test: Haemonchus contortus, Larvae Stage 3 (HcL3) In Vitro Assay; details: Haemonchus contortus, 96 h
# [3] = read-out: HcL3 MED, Minimum Effective Dose, H. contortus third stage larvae, approximately 96 hours
# [4] = read-out: HcL3 MED, Haemonchus contortus third stage larvae in vitro, class mark appended to the Ex # in Table 3
# [5] = read-out: HcL3 MED, approximately 96 hours incubation, multiple-resistant field isolate
compound,measurement,setting,value
"CC(C)C[C@H]1C(=O)O[C@H](Cc2ccc(Cc3cccnc3OC(F)F)cc2)C(=O)N(C)[C@@H](CC(C)C)C(=O)O[C@H](C)C(=O)N(C)[C@@H](CC(C)C)C(=O)O[C@H](Cc2ccc(Cc3cccnc3OC(F)F)cc2)C(=O)N(C)[C@@H](CC(C)C)C(=O)O[C@H](C)C(=O)N1C [Example 3-297, (3S,6R,9S,12R,15S,18R,21S,24R)-6,18-bis(4-((2-(difluoromethoxy)pyridin-3-yl)methyl)benzyl)-3,9,15,21-tetraisobutyl-4,10,12,16,22,24-hexamethyl-1,7,13,19-tetraoxa-4,10,16,22-tetraazacyclotetracosan-2,5,8,11,14,17,20,23-octaone]",minimal effective concentration,[1],0.03 µM
same,minimal effective concentration,D. immitis L4 larvae,0.001 µM
same,DiMf/DiL4,D. immitis L4 larvae,30
same,minimal effective concentration,[2]; [3],> 10 µM
"CC(C)C[C@H]1C(=O)O[C@H](Cc2ccc(Cc3cnccc3C#N)cc2)C(=O)N(C)[C@@H](CC(C)C)C(=O)O[C@H](C)C(=O)N(C)[C@@H](CC(C)C)C(=O)O[C@H](Cc2ccc(Cc3cnccc3C#N)cc2)C(=O)N(C)[C@@H](CC(C)C)C(=O)O[C@H](C)C(=O)N1C [Example 3-307, 3,3′-(((((2R,5S,8R,11S,14R,17S,20R,23S)-5,11,17,23-tetraisobutyl-4,8,10,16,20,22-hexamethyl-3,6,9,12,15,18,21,24-octaoxo-1,7,13,19-tetraoxa-4,10,16,22-tetraazacyclotetracosane-2,14-diyl)bis(methylene))bis(4,1-phenylene))bis(methylene))diisonicotinonitrile]",minimal effective concentration,[1],0.0003 µM
same,minimal effective concentration,D. immitis L4 larvae,0.0001 µM
same,DiMf/DiL4,D. immitis L4 larvae,3
same,minimal effective concentration,[2]; [4],< 1 µM
same,minimal effective concentration,[2]; [3],1 µM
same,minimal effective concentration,[2]; [5],≤ 1 µM
"CSc1ncccc1Cc1ccc(C[C@H]2OC(=O)[C@H](CC(C)C)N(C)C(=O)[C@@H](C)OC(=O)[C@H](CC(C)C)N(C)C(=O)[C@@H](Cc3ccc(Cc4cccnc4SC)cc3)OC(=O)[C@H](CC(C)C)N(C)C(=O)[C@@H](C)OC(=O)[C@H](CC(C)C)N(C)C2=O)cc1 [Example 3-308, (3S,6R,9S,12R,15S,18R,21S,24R)-3,9,15,21-tetraisobutyl-4,6,10,16,18,22-hexamethyl-12,24-bis(4-((2-(methylthio)pyridin-3-yl)methyl)benzyl)-1,7,13,19-tetraoxa-4,10,16,22-tetraazacyclotetracosan-2,5,8,11,14,17,20,23-octaone]",minimal effective concentration,[1],0.01 µM
same,minimal effective concentration,D. immitis L4 larvae,0.001 µM
same,DiMf/DiL4,D. immitis L4 larvae,10
same,minimal effective concentration,[2]; [4],1 to 3.3 µM
same,minimal effective concentration,[2]; [3],3.3 µM
"Cc1cnccc1Cc1ccc(C[C@H]2OC(=O)[C@H](CC(C)C)N(C)C(=O)[C@@H](C)OC(=O)[C@H](CC(C)C)N(C)C(=O)[C@@H](Cc3ccc(Cc4ccncc4F)cc3)OC(=O)[C@H](CC(C)C)N(C)C(=O)[C@@H](C)OC(=O)[C@H](CC(C)C)N(C)C2=O)cc1 [Example 3-309, (3S,6R,9S,12R,15S,18R,21S,24R)-6-(4-((3-fluoropyridin-4-yl)methyl)benzyl)-3,9,15,21-tetraisobutyl-4,10,12,16,22,24-hexamethyl-18-(4-((3-methylpyridin-4-yl)methyl)benzyl)-1,7,13,19-tetraoxa-4,10,16,22-tetraazacyclotetracosan-2,5,8,11,14,17,20,23-octaone]",minimal effective concentration,[1],0.003 µM
same,minimal effective concentration,D. immitis L4 larvae,0.00055 µM
same,DiMf/DiL4,D. immitis L4 larvae,5.5
same,minimal effective concentration,[2]; [4],1 to 3.3 µM
same,minimal effective concentration,[2]; [3],3.3 µM
"CCc1ncncc1Cc1ccc(C[C@H]2OC(=O)[C@H](CC(C)C)N(C)C(=O)[C@@H](C)OC(=O)[C@H](CC(C)C)N(C)C(=O)[C@@H](Cc3ccc(Cc4cncnc4CC)cc3)OC(=O)[C@H](CC(C)C)N(C)C(=O)[C@@H](C)OC(=O)[C@H](CC(C)C)N(C)C2=O)cc1 [Example 3-310, (3S,6R,9S,12R,15S,18R,21S,24R)-6,18-bis(4-((4-ethylpyrimidin-5-yl)methyl)benzyl)-3,9,15,21-tetraisobutyl-4,10,12,16,22,24-hexamethyl-1,7,13,19-tetraoxa-4,10,16,22-tetraazacyclotetracosan-2,5,8,11,14,17,20,23-octaone]",minimal effective concentration,[1],0.0003 µM
same,minimal effective concentration,D. immitis L4 larvae,0.001 µM
same,DiMf/DiL4,D. immitis L4 larvae,0.3
same,minimal effective concentration,[2]; [4],< 1 µM
same,minimal effective concentration,[2]; [3],1 µM
same,minimal effective concentration,[2]; [5],≤ 1 µM
"CC(C)C[C@H]1C(=O)O[C@H](Cc2ccc(Cc3cccc(F)n3)cc2)C(=O)N(C)[C@@H](CC(C)C)C(=O)O[C@H](C)C(=O)N(C)[C@@H](CC(C)C)C(=O)O[C@H](Cc2ccc(Cc3cccc(F)n3)cc2)C(=O)N(C)[C@@H](CC(C)C)C(=O)O[C@H](C)C(=O)N1C [Example 3-313, (3S,6R,9S,12R,15S,18R,21S,24R)-6,18-bis(4-((6-fluoropyridin-2-yl)methyl)benzyl)-3,9,15,21-tetraisobutyl-4,10,12,16,22,24-hexamethyl-1,7,13,19-tetraoxa-4,10,16,22-tetraazacyclotetracosan-2,5,8,11,14,17,20,23-octaone]",minimal effective concentration,[1],0.003 µM
same,minimal effective concentration,D. immitis L4 larvae,0.00055 µM
same,DiMf/DiL4,D. immitis L4 larvae,5.5
same,minimal effective concentration,[2]; [3],0.55 µM
"CC(C)C[C@H]1C(=O)O[C@H](Cc2ccc(Cc3cncnc3C(F)(F)F)cc2)C(=O)N(C)[C@@H](CC(C)C)C(=O)O[C@H](C)C(=O)N(C)[C@@H](CC(C)C)C(=O)O[C@H](Cc2ccc(Cc3cncnc3C(F)(F)F)cc2)C(=O)N(C)[C@@H](CC(C)C)C(=O)O[C@H](C)C(=O)N1C [Example 3-318, (3S,6R,9S,12R,15S,18R,21S,24R)-3,9,15,21-tetraisobutyl-4,6,10,16,18,22-hexamethyl-12,24-bis(4-((4-(trifluoromethyl)pyrimidin-5-yl)methyl)benzyl)-1,7,13,19-tetraoxa-4,10,16,22-tetraazacyclotetracosan-2,5,8,11,14,17,20,23-octaone]",minimal effective concentration,[1],0.0003 µM
same,minimal effective concentration,D. immitis L4 larvae,3e-05 µM
same,DiMf/DiL4,D. immitis L4 larvae,10
same,minimal effective concentration,[2]; [3],0.55 µM
"CC(C)C[C@H]1C(=O)O[C@H](Cc2ccc(Cc3cccnc3Cl)cc2)C(=O)N(C)[C@@H](CC(C)C)C(=O)O[C@H](C)C(=O)N(C)[C@@H](CC(C)C)C(=O)O[C@H](Cc2ccc(Cc3cccnc3Cl)cc2)C(=O)N(C)[C@@H](CC(C)C)C(=O)O[C@H](C)C(=O)N1C [Example 3-319, (3S,6R,9S,12R,15S,18R,21S,24R)-6,18-bis(4-((2-chloropyridin-3-yl)methyl)benzyl)-3,9,15,21-tetraisobutyl-4,10,12,16,22,24-hexamethyl-1,7,13,19-tetraoxa-4,10,16,22-tetraazacyclotetracosan-2,5,8,11,14,17,20,23-octaone]",minimal effective concentration,[1],0.00173 µM
same,minimal effective concentration,D. immitis L4 larvae,5.5e-05 µM
same,DiMf/DiL4,D. immitis L4 larvae,31.5
same,minimal effective concentration,[2]; [4],< 1 µM
same,minimal effective concentration,[2]; [3],0.55 µM
same,minimal effective concentration,[2]; [5],≤ 1 µM
